Measurements from patent US20060239926A1, “Specific high-relaxivity compounds” (GUERBET, priority 2003, published 2006).

Columns and labels:
human MMP-1 [1] = biological target: T1, human MMP-1 (Homo sapiens, UniProt P03956); assay: In vitro MMP-inhibiting activity (fluorimetry), MMP-1; type: biochemical
T1 sequence (P03956 100-469): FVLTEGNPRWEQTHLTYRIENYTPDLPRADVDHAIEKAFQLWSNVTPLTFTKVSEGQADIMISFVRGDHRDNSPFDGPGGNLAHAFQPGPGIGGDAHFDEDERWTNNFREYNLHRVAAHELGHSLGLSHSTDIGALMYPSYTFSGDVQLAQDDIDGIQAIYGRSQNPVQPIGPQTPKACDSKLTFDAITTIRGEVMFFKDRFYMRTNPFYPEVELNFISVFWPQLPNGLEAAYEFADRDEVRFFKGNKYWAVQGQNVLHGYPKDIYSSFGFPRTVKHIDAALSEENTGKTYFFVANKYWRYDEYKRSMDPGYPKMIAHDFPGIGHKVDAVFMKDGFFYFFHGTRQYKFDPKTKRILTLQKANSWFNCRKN
Protocol: The inventors assayed the in vitro activity of the P947 and P967 gadolinium-chelate contrast products functionalized with matrix metalloproteases inhibitors (MMPs), on human MMP-1 and MMP-3. As regards the affinity of the biovector component, on the receptor, the controls were two peptides:
More precisely, the in vitro MMP-inhibiting activity was evaluated in the following way: • 1. Incubation of the test product in the presence of the MMP enzyme, at 37° C., for a defined period of time, and then measurement of the fluorescence of the medium (t=0). • 2. Induction of the enzyme reaction by addition of the substrate to (which becomes fluorescent when it is cleaved by the enzyme), and then incubation at 37° C. for 40 min. A second measurement of fluorescence is then taken (t=40). • 3. The activity of the MMP enzyme is determined by subtraction of the signal measured by fluorimetry: (t=40)-(t=0). • 4. The results are expressed as percentage inhibition of the activity of the control enzyme. • 5. The standard inhibitory product is TIMP-1.
The products were tested in duplicate, at 10^−5, 10^−7 and 10^−9 M with respect to peptides. Those which contain no peptides were treated in a manner similar to the corresponding functionalized contrast products.

MMP-2 [2] = biological target: T2, MMP-2 (Homo sapiens, UniProt P08253); assay: In vitro MMP-inhibiting activity (fluorimetry), MMP-2; type: biochemical
T2 sequence (P08253 110-660): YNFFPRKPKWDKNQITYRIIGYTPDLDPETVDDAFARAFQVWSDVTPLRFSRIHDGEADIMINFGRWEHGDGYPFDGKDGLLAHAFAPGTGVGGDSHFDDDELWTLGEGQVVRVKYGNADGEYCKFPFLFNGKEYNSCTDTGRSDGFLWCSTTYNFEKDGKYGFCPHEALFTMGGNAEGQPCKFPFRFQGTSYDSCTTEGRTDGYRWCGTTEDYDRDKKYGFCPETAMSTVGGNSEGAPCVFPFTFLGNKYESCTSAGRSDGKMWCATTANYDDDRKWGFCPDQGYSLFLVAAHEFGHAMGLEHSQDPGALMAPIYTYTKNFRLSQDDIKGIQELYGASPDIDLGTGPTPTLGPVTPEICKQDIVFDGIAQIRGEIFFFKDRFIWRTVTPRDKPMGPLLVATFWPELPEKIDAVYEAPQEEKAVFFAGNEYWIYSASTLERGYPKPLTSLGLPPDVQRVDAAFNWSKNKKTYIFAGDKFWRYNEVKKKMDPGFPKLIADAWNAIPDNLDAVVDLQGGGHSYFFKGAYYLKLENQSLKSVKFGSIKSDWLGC
Protocol: The inventors also tested the in vitro activity in order to evaluate the inhibitory activity of P947 and of the tetrapeptide on MMP-2, a gelatinase A expressed constitutively in the vascular wall and overexpressed in the case of inflammation.
Control: commercial tetrapeptide (called peptide B in the study): 4-Abz-Gly-Pro-Dleu-Dala-NHOH (Bachem); inhibitor of MMP-1, MMP-2 and MMP-3.
The detailed protocol is as follows for MMP2s: the product tested is added to a 50 mM. Tris-HCl buffer (pH 7.5) containing 150 mM NaCl, 10 mM […], 0.02% NaN3, 0.05% Brij®35 and 0.35 μM MMP-2 activated by incubation for 120 minutes at 37° C. with 6.67 mM APMA. The fluorescence intensity is measured after preincubation for 30 minutes at 37° C., at lambda ex=340 nm and lambda em=405 nm. The enzyme reaction is initiated by adding 6 μM NFF-2, with subsequent incubation for 90 minutes at 37° C.

human MMP-1 [3] = biological target: T1, human MMP-1; settings: value of the peptide component, not of the Gd conjugate, read-out: IC50 OF THE PEPTIDE (LITERATURE); cited from earlier work
MMP-2 [4] = biological target: T2, MMP-2; settings: read-out: IC50 on MMP-2 (literature); cited from earlier work
THP-1 cells = assay: Uptake of PS-NBD by THP-1 cells, flow cytometry; type: cell-based, human; settings: PS-NBD range 13, 32 and 64 μM; 24 hours
Protocol: In vitro validation was performed by comparing the rate of uptake by activated macrophages versus non-activated macrophages (activated THP-1 cells are positive for the PS receptor). […] PS-NBD is a phosphatidylserine comprising only one fatty chain, the other arm linked to the serine head supporting the fluorescence marker NBD.
The THP-1 cell line is a human monocyte line which, after activation, differentiates into macrophages and expresses the phosphatidylserine receptor. These cells were cultured in the presence of phosphatidylserine-NBD.
Protocol with Flow Cytometry • 2 ml of a suspension of THP-1 at 10^6 C/ml are seeded in a 6-well plate. • The THP-1 are activated for 24 hours with 50 nmol/l of PMA. • […] of each of the dilutions (from the solution at 6.25 mmol/l) are incubated for 24 hours. • The excess product is suctioned off. • The cell layer is washed with 1 ml of RPMI without phenol red. • The excess is suctioned off. • The cells are resuspended in 1 ml of PBS (detachment of the cells using a flow of medium over the layer then scraping of the cells which have not detached, using a scraper). • The cells are kept in the dark at 4° C. while awaiting reading. • The fluorescence is read in FL1 at 525 nm by flow cytometry.
PS-NBD range tested: 13, 32 and 64 μM
Groups tested: THP-1/PMA, THP-1/PS-NBD at 5 μM.

[5] = system: primary macrophages from WHHL rabbits; assay: Ex vivo incubation of WHHL rabbit macrophages/aortic tissues with PS-NBD, fluorescence microscopy; type: cell-based; settings: incubated 18 h ex vivo; 35 μM
Protocol: In fact macrophages were isolated from aortic arch and mesenteric lymph node samples, and then incubated for 18 h ex vivo in the presence of PS-NBD. […] More precisely, the rabbit was subjected to exsanguinating perfusion with heparinized newborn calf serum before being sacrificed. The aortic arch, the thoracic aorta and the abdominal aorta were removed. The tissue removed were incubated for 18 hours in cell culture medium to which PS-NBD had been added and were then mounted in frozen blocks in order for histological sections to be cut. Certain sections were observed by fluorescence microscopy and others were immunolabelled using an anti-rabbit macrophage antibody (RAM 11).
• Incubation of the samples at 37° C. in 24-well plates in the presence of PS-NBD at 35 μM for 18 hours. • 2 rinses of the arteries in PBS. • Embedding of each piece of aorta in a freezing gel. • Cryofixation. • Storage of the components in a −80° C. freezer. Immunohistochemistry (HEGP) • The mouse primary antibody Ram 11 is used at a 1/100 dilution. • The secondary antibody (goat anti-mouse) is coupled to alkaline phosphatase. • The chromogen used is ADC (supplied by AbCys). • Fast re counterstaining is carried out.

[6] = system: macrophages located in the plaques; assay: Ex vivo distribution of PS-NBD in atheroma plaques of ApoE-KO mice; type: cell-based
Protocol: For this, samples of heart comprising valves and aortic arch and also the iliac bifurcation are incubated in the presence of PS-NBD.

Compound | SIGNIFICANT INHIBITORY EFFECT (human MMP-1 [1]; concentration of peptide 10^−5M) | CONCENTRATION OF PEPTIDE (with significant inhibitory effect) (human MMP-1 [1]; tested at 10^−5, 10^−7 and 10^−9 M with respect to peptides) | concentration from which significant inhibitory activity on MMP-2 (MMP-2 [2]) | IC50 (human MMP-1 [3]) | IC50 (MMP-2 [4]) | ratio of the negative control to the highest concentration (fluorescence, FL1 525 nm) (THP-1 cells) | intracellular accumulation in macrophages [5] | interaction with macrophages in atheroma plaques [6]
4-Abz-Gly-Pro-Dleu-Dala-NHOH [PEPTIDE B] | 46% | 10^−5M | ≥ 10^−5 M | 1000 nM | 30 µM | – | – | –
CCCCCCCCCCCCCCCC(=O)OC[C@H](COP(=O)(O)OC[C@H](N)C(=O)O)OC(=O)CCCCCNc1ccc([N+](=O)[O-])c2nonc12 [PS-NBD] | – | – | – | – | – | > 50 | large intracellular accumulation | interacts specifically with the macrophages located in the plaques
